The results in this text go back to ChEMBL document CHEMBL4619738, “Ansamycin derivatives from the marine-derived Streptomyces sp. SCSGAA 0027 and their cytotoxic and antiviral activities” (Bioorg Med Chem Lett, 2020).

Series [1] concerns Bacillus amyloliquefaciens. The series is described as follows: Antibacterial activity against Bacillus amyloliquefaciens. It counts as functional.
A further series relates to Staphylococcus aureus. The series is described as follows: Antibacterial activity against Staphylococcus aureus. The series is classed as functional.
The subject of series [2] is MCF7. The series is described as follows: cells. The note with it: Homo sapiens.
The subject of a further series is K562. The series is described as follows: Cytotoxicity against human K562 cells assessed as reduction in cell viability. It counts as functional, cell-based.
The target of series [3] is Heat shock protein HSP 90-alpha (Homo sapiens, UniProt P07900). Nature of the series: Inhibition of HSP90alpha (unknown origin).
Another series concerns Shewanella oneidensis. Nature of the series: Antibacterial activity against Shewanella oneidensis MR-1. It counts as functional.
A further series concerns A549. The series is described as follows: Cytotoxicity against human A549 cells assessed as reduction in cell viability. It counts as functional, cell-based.
Series [4] concerns HL-60. Nature of the series: cells. The note with it: Homo sapiens.
Description: (§1) Cytotoxicity against human HL60 cells assessed as reduction in cell viability
In series [5] the test system is HL-60.
Description: as §1
In series [6] the test system is MCF7.
The nature of series [7]: Cytotoxicity against African green monkey Vero cells assessed as reduction in cell viability. The note with it: chlorocebus sabaeus. It counts as cell-based.
The next series has as its system Human alphaherpesvirus 1. The series is described as follows: Antiviral activity against HSV-1 by plaque reduction assay. The series is classed as functional, organism-based. On the technique in general: In a plaque reduction assay, fewer plaques than in the control indicate reduced infectivity or spread.
Setting [8] is: Homo sapiens, K562, read-out: IC50.

Molecules are shown by their SMILES. In brackets after ≈: the same amount, converted by molar mass. Some results are limits rather than exact numbers.

As for `CO[C@H]1/C=C\C=C(/C)C(=O)NC2=CC(=O)C(O)=C(C[C@@H](C)C[C@H](OC)[C@H](O)[C@@H](C)/C=C(\C)[C@@H]1OC(N)=O)C2=O`, the MIC (in series [1]; with Staphylococcus aureus; against Shewanella oneidensis) was above 200 µg/mL throughout. The IC50 (commonly the point on the concentration scale where inhibition reaches its midpoint) in the series on MCF7 [2] was found to be 9.9 µM; in the series on K562 (setting [8]) it was 4.8 µM; in series [3] (read-out: IC50), 4.1 µM; with A549, 7.7 µM; in the series on HL-60 [4], 36 µM.

On to `CO[C@H]1C[C@H](C)Cc2cc(cc(O)c2O)NC(=O)/C(C)=C/CC[C@H](OC)[C@@H](OC(N)=O)/C(C)=C/[C@H](C)[C@H]1O`, for which the MIC (in series [1]; with Staphylococcus aureus; in the series on Shewanella oneidensis) was above 200 µg/mL in each case. Also, the IC50 entry was “Not Active” with K562 (k562); “Not Active” in the series on HL-60 [5]; 0.03 µM in series [3] (read-out: IC50); above 50 µM with A549; “Not Active” with MCF7 [6].

In the case of `COc1c(O)cc2c3c1C[C@@H](C)C[C@H](OC)[C@H](O3)[C@@H](C)/C=C(\C)[C@H](OC(N)=O)[C@@H](OC)/C=C/C=C(\C)C(=O)N2`, the MIC (in [1]; against Staphylococcus aureus; in the series with Shewanella oneidensis) was above 200 µg/mL in each case. For the same compound, the IC50 with MCF7 [2] is 36 µM; with K562 (setting [8]) it was 43 µM; in series [3], “Not Active”; with A549, 37 µM; in the series on HL-60 [4], 35 µM.

As for `CC[C@H]1/C=C/[C@@H]([C@H](C)O)OC(=O)/C(C)=C/CC(=O)Nc2cc(O)cc3c2O[C@@]2(CC1)CC(=O)[C@@H](C)[C@H]3O2`, in series [7], the CC50 (as a rule, the concentration that lowers cell viability or growth by half) was found to be 510 µM. The MNTC in [7] (read-out: MNCC) was 160 µM. For the same compound, half-maximal inhibition in the series on Human alphaherpesvirus 1 (IC50) required 19 µM.

In the case of `COc1c(O)cc2c3c1C[C@@H](C)C[C@H](OC)[C@H](O3)[C@@H](C)/C=C(\C)[C@H](OC(N)=O)[C@@H](OC)CC/C=C(\C)C(=O)N2`, the MIC (in [1]; with Staphylococcus aureus; in the series with Shewanella oneidensis) was above 200 µg/mL throughout. Also, the IC50 was 70 µM with MCF7 [2]; 43 µM in the series on K562 (setting [8]); “Not Active” in series [3]; 65 µM in the series on A549; 86 µM in the series with HL-60 [4].

On to `COc1c(O)cc2c3c1C[C@@H](C)C[C@H](OC)[C@H](O3)[C@@H](C)/C=C(\C)[C@H](OC(N)=O)[C@@H](OC)C[C@@H](O)/C=C(\C)C(=O)N2`, for which the MIC (in general, the smallest concentration in the dilution series that meets the test's criterion for growth inhibition) was 100 µg/mL (≈ 178 µM) in [1], 50 µg/mL (≈ 88.9 µM) in the series on Staphylococcus aureus and above 200 µg/mL against Shewanella oneidensis. Further, the IC50 in the series on MCF7 [2] was above 100 µM; with K562 (setting [8]), above 100 µM; in the series with HL-60 [5] it was “Not Active”; in [3] (read-out: IC50) it was 96 µM; in the series on A549 it was above 100 µM.

Consider `COc1c(O)cc2c3c1C[C@@H](C)C[C@H](OC)[C@H](O3)[C@@H](C)/C=C(\C)[C@H](OC(N)=O)[C@@H](OC)/C=C\C=C(\C)C(=O)N2`, for which the MIC (in series [1]; with Staphylococcus aureus; with Shewanella oneidensis) was above 200 µg/mL in each case. The IC50 in the series on MCF7 [2] was 35 µM; in the series with K562 (setting [8]), 18 µM; in [3], “Not Active”; with A549 it was 13 µM; with HL-60 [4] it was 48 µM.

Regarding `COc1c(O)cc2c3c1C[C@@H](C)C[C@H](OC)[C@H](O3)[C@@H](C)/C=C(\C)[C@H](OC(N)=O)[C@@H](OC)/C=C\C=C(/C)C(=O)N2`, the MIC (in series [1]; against Staphylococcus aureus; with Shewanella oneidensis) was above 200 µg/mL in each case. In addition, the IC50 in the series with MCF7 [2] was 20 µM; in the series with K562 (setting [8]), 14 µM; in series [3] it was “Not Active”; in the series on A549 it was 16 µM; in the series on HL-60 [4], 27 µM.

As for `COC1=C2C[C@@H](C)C[C@H](OC)[C@H](O)[C@@H](C)/C=C(\C)[C@H](OC(N)=O)[C@@H](OC)/C=C\C=C(/C)C(=O)NC(=CC1=O)C2=O` [GELDANAMYCIN], the MIC (in series [1]; against Staphylococcus aureus; against Shewanella oneidensis) was above 200 µg/mL in each case.

For `CO[C@H]1/C=C\C=C(/C)C(=O)NC2=CC(=O)C=C(C2=O)[C@H](OC)[C@@H](C)C[C@H](OC)[C@H](O)[C@@H](C)/C=C(\C)[C@@H]1OC(N)=O` [HERBIMYCIN C], the MIC is 100 µg/mL (≈ 178 µM) in series [1], 50 µg/mL (≈ 89.2 µM) in the series on Staphylococcus aureus and above 200 µg/mL against Shewanella oneidensis. The IC50 in the series on MCF7 [2] is 20 µM; with K562 (setting [8]), 20 µM; in series [3] (read-out: IC50), 31 µM; in the series on A549, 19 µM; in the series with HL-60 [4], 56 µM.

Take `CC(=O)O[C@H]1C(=O)[C@@]2(C)[C@H]([C@H](OC(=O)c3ccccc3)[C@]3(O)C[C@H](OC(=O)[C@H](O)[C@@H](NC(=O)c4ccccc4)c4ccccc4)C(C)=C1C3(C)C)[C@]1(OC(C)=O)CO[C@@H]1C[C@@H]2O` [PACLITAXEL]: the IC50 result in [3] was “Not Active”.

On to `COc1c(O)cc2cc1C[C@@H](C)C[C@H](OC)[C@H](O)[C@@H](C)/C=C(\C)[C@H](OC(N)=O)[C@@H](OC)CC/C=C(\C)C(=O)N2` [REBLASTATIN], for which the minimum inhibitory concentration (MIC) (in series [1]; in the series on Staphylococcus aureus; against Shewanella oneidensis) was above 200 µg/mL each time. Also, the IC50 entry in the series with HL-60 [5] was “Not Active”; in series [3] (read-out: IC50) it was 0.005 µM; in the series with A549, 0.7 µM; in the series with MCF7 [6], “Not Active”.
